Data taken from patent publication US20070191490A1, “Withacnistin compounds for treatment of cancer” (priority 2006, published 2007).
Like-named read-outs stand apart in the source and are kept apart here.

Columns and labels:
A549 cells [1] = assay: TUNEL apoptosis assay, A549; type: cell-based, human; conditions: for apoptosis (TUNEL): 10 μM, 24 h
Method: (§1) In vitro cellular proliferation and TUNEL assays. Subconfluent A549, MDA-MB-435, MDA-MB-453, MDAMB-468, v-Src transformed NIH 3T3 (v-Src/3T3), H-Ras transformed NIH 3T3 (H-Ras/3T3), and vector NIH 3T3 cells were grown in the presence of 10 μM cucurbitacin A, cucurbitacin I, withacnistin mixture, or DMSO vehicle control. After 24 hours, cells were harvested by trypsinization and counted via trypan blue exclusion assay to determine cellular viability. In all, 75,000-150,000 cells (depending on cell line) were then spun onto glass slides using a Cytospin 3 centrifuge (Thermo Shandon Inc., Pittsburgh, Pa., USA). After fixing cells to the slides with 4% paraformaldehyde in PBS, pH 7.5, for 1 h at room temperature, cells were labeled for apoptotic DNA strand breaks by TUNEL reaction using an in situ cell death detection kit (Roche Applied Science, Indianapolis, Ind., USA) according to the manufacturer's instructions, then mounted in Vectashield mounting medium (Vector Laboratories, Burlingame, Calif., USA) containing 4′,6-diamidino-2-phenylindole (DAPI) to counterstain DNA. Fluorescein-labeled DNA strand breaks (TUNEL-positive cells) were then visualized using a fluorescent microscope (Leica Microsystems Inc., Bannockburn, Ill., USA) and pictures taken with a digital camera (Diagnostic Instruments, Inc., Sterling Heights, Mich., USA). TUNELpositive nuclei were counted and compared to DAPI-stained nuclei to determine the percent induction of apoptosis by the different cucurbitacin compounds. Statistical significance between control and treated tumors were evaluated by using Student's t-test.
The next objective was to determine whether the ability of the cucurbitacins and withacnistin to induce apoptosis is dependent on suppression of PJAK2 and/or P-STAT3 levels. To this end, A549 cells were treated with vehicle control, or cucurbitacins (10 μM), or the withacnistin mixture (10 μM) for 24 h, harvested the cells, and determined tumor cell death (trypan blue exclusion) and apoptosis (TUNEL) as described under Materials and methods. […]

STAT3 = assay: Total STAT3 levels (STAT3 immunoprecipitation / immunoblot); type: cell-based, human; conditions: A549 cells
Method: STAT3 immunoprecipitation. A549 cells were treated for 4 hour with vehicle or the withacnistin mixture, then lysed in 150 mM HEPES, pH 7.5, 150 mM NaCl, 1 mM EDTA, 0.5% NP-40, 10% glycerol, 5 mM NaF, 1 mM DTT, 1 mM PMSF, 2 mM sodium orthovanadate, and 5 μg/ml leupeptin. Sample lysates were collected and cleared, then 500 μg of lysate was immunoprecipitated with 50 ng STAT3 antibody overnight at 4° C., then rocked with 25 μl Protein A/G PLUS agarose (Santa Cruz Biotechnology) for 1 hour at 4° C. Samples were washed four times with lysis buffer, then boiled in 2×SDS-PAGE sample buffer and run on 10% SDS-PAGE gel. Protein was transferred to nitrocellulose then blotted as above for both phospho-specific STAT3 and STAT3.
(§2) As further support of the specific antiphosphotyrosine STAT3, but not antiphosphotyrosine JAK2, activity of withacnistin, A549 cells, as well as two breast carcinoma cell lines (MDA-MB-435 and MDA-MB-468) that also express constitutively activated JAK2 and STAT3, were treated with the withacnistin mixture at various concentrations, and determined IC50 values of inhibition of STAT3 and JAK2 activation. […] In all three cell lines, JAK2 activation was not inhibited at withacnistin concentrations as high as 10 μM. […] Thus, in all three cell lines, withacnistin (Wit) inhibits specifically STAT3 but not JAK2 activation and Cuc A inhibits JAK2 but not STAT3 activation whereas Cuc I inhibits the activation of both STAT3 and JAK2.

JAK2 = assay: Total JAK2 levels in A549 cells; type: cell-based, human; conditions: 10 μM, data not shown
Method: as §2

A549 tumors = assay: TUNEL immunohistochemistry of A549 tumor sections; type: in vivo, nude mice; conditions: 1 mg/kg/day, control 0.4±0.1%
Method: TUNEL immunohistochemistry. Tumors were harvested, […], and dewaxed as described for P-STAT3 immunohistochemistry. Tissue sections (5 μm) were digested for 10 minutes with 25 μg/ml proteinase K in PBS and then washed thoroughly. Peroxidases were quenched with 3% hydrogen peroxide in PBS and washed. Sections were equilibrated with equilibration buffer, then incubated in 30% TdT enzymes/70% digoxigenin nucleotidyl reaction buffer for 1 hour at 37° C. in a humidified chamber. The labeling reaction was stopped in stop/wash buffer with moderate shaking. Slides then were placed on the Dako Autostainer and incubated with antidigoxigenin-peroxidase (DakoCytomation California, Inc.) for 30 minutes using DAB substrate. Sections were counterstained with methyl green (Vector Laboratories), dehydrated through ascending alcohol, cleared, and mounted with resinous mounting medium. The quantification was performed by counting both the TUNEL-positive and -negative cells on slides representative of eight tumors and significance was determined by Student's t-test.
To determine whether phosphotyrosine STAT3 is targeted by withacnistin in vivo, and to determine if the results seen in cell culture concerning induction of apoptosis were occurring in tumors from animals treated with withacnistin, on the termination day of the A549 antitumor experiment, tumors from animals treated with Cuc A, Cuc I, and the withacnistin mixture, as well as vehicle control, were extracted and fixed in 10% neutral-buffered formalin and then processed into paraffin blocks for tissue sectioning. These tissue sections were stained separately with either TUNEL for determination of apoptosis, or phosphotyrosine STAT3 to determine if the signaling protein is inhibited in the tumors.

A549 cells [2] = assay: Trypan blue exclusion assay (tumor cell death); type: cell-based, human; conditions: 10 μM, 24 h
Method: In vitro cellular proliferation and TUNEL assays. Subconfluent A549, MDA-MB-435, MDA-MB-453, MDAMB-468, v-Src transformed NIH 3T3 (v-Src/3T3), H-Ras transformed NIH 3T3 (H-Ras/3T3), and vector NIH 3T3 cells were grown in the presence of 10 μM cucurbitacin A, cucurbitacin I, withacnistin mixture, or DMSO vehicle control. After 24 hours, cells were harvested by trypsinization and counted via trypan blue exclusion assay to determine cellular viability. In all, 75,000-150,000 cells (depending on cell line) were then spun onto glass slides using a Cytospin 3 centrifuge (Thermo Shandon Inc., Pittsburgh, Pa., USA). […] TUNELpositive nuclei were counted and compared to DAPI-stained nuclei to determine the percent induction of apoptosis by the different cucurbitacin compounds. Statistical significance between control and treated tumors were evaluated by using Student's t-test.
The next objective was to determine whether the ability of the cucurbitacins and withacnistin to induce apoptosis is dependent on suppression of PJAK2 and/or P-STAT3 levels. To this end, A549 cells were treated with vehicle control, or cucurbitacins (10 μM), or the withacnistin mixture (10 μM) for 24 h, harvested the cells, and determined tumor cell death (trypan blue exclusion) and apoptosis (TUNEL) as described under Materials and methods.

Src kinase [3] = biological target: T1, Src kinase (Homo sapiens, UniProt P12931); conditions: Blaskovich et al. 2003; cited from earlier work
T1 sequence (P12931 whole entry): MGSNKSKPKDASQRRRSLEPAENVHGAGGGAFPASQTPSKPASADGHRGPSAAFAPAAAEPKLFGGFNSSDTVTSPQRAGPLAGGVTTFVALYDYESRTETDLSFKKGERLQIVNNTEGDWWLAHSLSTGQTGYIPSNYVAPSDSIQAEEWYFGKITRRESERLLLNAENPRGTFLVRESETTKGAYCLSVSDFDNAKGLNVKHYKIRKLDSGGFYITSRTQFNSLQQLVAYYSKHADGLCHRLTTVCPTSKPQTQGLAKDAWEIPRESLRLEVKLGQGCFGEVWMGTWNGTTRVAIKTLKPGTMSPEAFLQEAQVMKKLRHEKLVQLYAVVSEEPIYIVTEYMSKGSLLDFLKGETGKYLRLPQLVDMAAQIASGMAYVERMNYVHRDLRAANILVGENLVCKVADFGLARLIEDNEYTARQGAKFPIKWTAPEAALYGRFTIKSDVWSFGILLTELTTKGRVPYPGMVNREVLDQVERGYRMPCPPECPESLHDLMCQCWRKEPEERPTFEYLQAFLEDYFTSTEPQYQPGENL

MDA-MB-453 cells = assay: TUNEL apoptosis assay, MDA-MB-453; type: cell-based, human; conditions: 10 μM withacnistin mixture, 24 hours
Method: as §1, with “Fluorescein-labeled DNA strand breaks (TUNEL-positive cells) were then visualized using a fluorescent microscope (Leica Microsystems Inc., Bannockburn, Ill., USA) and pictures taken with a digital camera (Diagnostic Instruments, Inc., Sterling Heights, Mich., USA).” left out, “t-test. […]” for “t-test.”

Src kinase [4] = biological target: T1, Src kinase; assay: Src kinase inhibition in vitro; type: biochemical; conditions: data not shown
Source text: The actual biochemical targets for cucurbitacins are not known. […] Possible tyrosine kinases that could be targets are the Src family of kinases. Src kinase itself was not inhibited in vitro by Cuc I (Blaskovich, M. A. et al. Cancer Res., 2003, 63:1270-1279) and withacnistin (data not shown).

SMILES	apoptosis (TUNEL) (A549 cells [1]) [%]	total STAT3 levels (STAT3; 10 μM, 4 hours)	total JAK2 levels (JAK2)	TUNEL-positive cells (A549 tumors) [%]	tumor cell death (trypan blue exclusion) (A549 cells [2]) [%]	inhibition of Src kinase in vitro (Src kinase [3])	increase of percentage of apoptotic tumor cells compared to vehicle-treated control (A549 cells [1]; 10 μM withacnistin mixture, 24 hours) [fold]	total STAT3 levels (STAT3; by 24 hours, data not shown)	increase of percentage of apoptotic cells compared to vehicle control (MDA-MB-453 cells) [fold]	inhibition of Src kinase in vitro (Src kinase [4])
CC(=O)OC(C)(C)/C=C/C(=O)[C@](C)(O)[C@H]1[C@H](O)C[C@@]2(C)[C@@H]3CC=C4[C@@H](C[C@H](O)C(=O)C4(C)C)[C@]3(CO)C(=O)C[C@]12C [Cuc A, cucurbitacin A]	5	does not affect	none of the three compounds affects	0.3±0.2	11					
CC(C)(O)/C=C/C(=O)[C@](C)(O)[C@H]1[C@H](O)C[C@@]2(C)[C@@H]3CC=C4[C@@H](C=C(O)C(=O)C4(C)C)[C@]3(C)C(=O)C[C@]12C [Cuc I, cucurbitacin I]		does not affect	none of the three compounds affects	10.5±3.0		not inhibited				
CC(=O)OC[C@]12CC[C@H]3[C@@H](C[C@H]4O[C@]45[C@@H](O)C=CC(=O)[C@]35C)[C@@H]1CC[C@@H]2[C@H](C)[C@H]1CC(C)=C(C)C(=O)O1 [withacnistin]	28	without affecting	none of the three compounds affects	14.3±2.7	60		27.4	suppressed	4.7	not inhibited
